The values that follow come from US20260001914A1, “MACROCYCLIC PEPTIDES TARGETING KRAS” (Merck Sharp & Dohme LLC, priority 2022, published 2026).

*1 amine or outer side, *2 acyl side, *3 side chain or, on linkers, in order; H or OH if unused. Where a SMILES comes first, the peptide text is derived from it. Bridges are numbered along the chain shown (N, C = ends). [ ]: non-standard residue; d: D form. The star is where a group is joined. Ala(pyrimidin-5-yl) = N[C@@H](Cc1cncnc1)C(=O)O; NMe3Pal(6-Me) = CN[C@@H](Cc1ccc(C)nc1)C(=O)O; NMePhe(3-Me) = CN[C@@H](Cc1cccc(C)c1)C(=O)O; X39 = CN([C@@H](Cc1cccnc1F)C(=O)[*:2])[*:1]; NMePhe(4-F) = CN[C@@H](Cc1ccc(F)cc1)C(=O)O; Phe(2,6-F2) = N[C@@H](Cc1c(F)cccc1F)C(=O)O; X27 = Cc1ccc(C[C@H](N[*:1])C(=O)[*:2])cn1; Ethyl(2-pyrrolidin-1-yl) = C1CCN(CC*)C1; Nle(5,5-F2) = CC(F)(F)CC[C@H](N)C(=O)O; Phe(2-F) = N[C@@H](Cc1ccccc1F)C(=O)O; Abu(4,4-F2) = N[C@@H](CC(F)F)C(=O)O; NMe3Pal = CN[C@@H](Cc1cccnc1)C(=O)O; X1 = O=C(C12CC(CN[*:1])(C1)C2)[*:2]; X17 = O=C([C@H](CCCCF)N[*:1])[*:2]; X41 = COCCC[C@H](N[*:1])C(=O)[*:2]; NMeOrn(Me) = CNCCC[C@H](NC)C(=O)O; Ala(cPr) = N[C@@H](CC1CC1)C(=O)O; NMeF = CN[C@@H](Cc1ccccc1)C(=O)O; PhLac = O=C(O)[C@@H](O)Cc1ccccc1; 3Pal = N[C@@H](Cc1cccnc1)C(=O)O; Ahp(2) = CCCCC[C@H](N)C(=O)O; Cba = N[C@@H](CC1CCC1)C(=O)O; hLeu = CC(C)CC[C@H](N)C(=O)O; NMeS = CN[C@@H](CO)C(=O)O; αMeC = C[C@](N)(CS)C(=O)O; NMeA = CN[C@@H](C)C(=O)O; Nle = CCCC[C@H](N)C(=O)O; Pra = C#CC[C@H](N)C(=O)O A value given as a limit tells only on which side of the number the result lay.

Sequence of phosphorylation levels of ERK1/2 in AsPC-1 (homozygous KRAS-G12D) cells (P01116 1-186 G12D): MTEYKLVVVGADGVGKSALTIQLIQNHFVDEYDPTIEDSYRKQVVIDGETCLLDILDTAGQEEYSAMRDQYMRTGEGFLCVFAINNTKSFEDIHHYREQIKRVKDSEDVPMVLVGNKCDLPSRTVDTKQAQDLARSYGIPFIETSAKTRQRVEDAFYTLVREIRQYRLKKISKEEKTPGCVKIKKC

The test addresses phosphorylation levels of ERK1/2 in AsPC-1 (homozygous KRAS-G12D) cells (Homo sapiens, UniProt P01116, G12D). Put plainly: Cellular phospho-ERK assay in AsPC-1 cells (Alpha Screen), assay medium without fetal bovine serum.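 Further: signal taken as phospho-ERK over total ERK per well, both detected in one multiplex bead assay, EC50 from four-parameter logistic fit of dose-response curves.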 The format is cell-based. The conditions noted are these: phospho-ERK AlphaScreen, 18 h.
Regarding `CCCCC[C@@H]1NC(=O)[C@H](Cc2ccc(OC)cc2)NC(=O)[C@H](CC2CCC2)NC(=O)[C@H](Cc2cccnc2)NC(=O)[C@H](C)N(C)C(=O)[C@H](Cc2ccccc2)OC(=O)C23CC(CNC(=O)[C@H](Cc4ccccc4)N(C)C1=O)(C2)C3` [compound 227, cyclo(FLac-NMeA-3Pal-cBuA-TyrOMe-Ahp-NMeF-amBCP)] (cyclo([3Pal][Cba]Y(Me)[Ahp(2)][NMeF][X1][PhLac][NMeA])), the EC50 was found to be 886 nM.
In the case of `CCCC[C@@H]1NC(=O)[C@H](Cc2cccnc2)NC(=O)[C@H](COC)N(C)C(=O)[C@H](Cc2ccccc2)OC(=O)C23CC(CNC(=O)[C@H](Cc4cccnc4)N(C)C(=O)[C@H](CCCC)NC(=O)[C@H](Cc4ccccc4F)NC1=O)(C2)C3` [compound 255, cyclo(FLac-nMeSMe-3Pal-Nle-Phe2F-Nle-NMe3Pal-amBCP)] (cyclo([3Pal][Nle][Phe(2-F)][Nle][NMe3Pal][X1][PhLac][NMeS](Me))), the EC50 was greater than 50800 nM.
The result for `CC(C)CC[C@@H]1NC(=O)[C@H](Cc2c(F)cccc2F)NC(=O)[C@H](CC2CCC2)NC(=O)[C@H](Cc2cncnc2)NC(=O)[C@H](C)N(C)C(=O)[C@H](Cc2ccccc2)OC(=O)C23CC(CNC(=O)[C@H](Cc4ccccc4)N(C)C1=O)(C2)C3` [compound 226, cyclo(FLac-NMeA-PyrimAla-cBuA-Phe26F2-hL-NMeF-amBCP)] (cyclo([Cba][Phe(2,6-F2)][hLeu][NMeF][X1][PhLac][NMeA][Ala(pyrimidin-5-yl)])) reads 355 nM; that for `CCCC[C@@H]1NC(=O)[C@H](Cc2cccnc2)NC(=O)[C@H](C)N(C)C(=O)[C@H](Cc2ccc(C)nc2)NC(=O)C23CC(CNC(=O)[C@H](Cc4cccnc4)N(C)C(=O)[C@H](CCCC)NC(=O)[C@H](Cc4ccccc4F)NC1=O)(C2)C3` [compound 164, cyclo(4Me3Pal-NMeA-3Pal-Nle-Phe2F-Nle-NMe3Pal-amBCP)] (cyclo([3Pal][Nle][Phe(2-F)][Nle][NMe3Pal][X1][X27][NMeA])), greater than 50800 nM; that for `C[C@H]1C(=O)N[C@@H](Cc2cncnc2)C(=O)N[C@@H](CC2CC2)C(=O)N[C@@H](Cc2ccccc2F)C(=O)N[C@@H](CC(F)F)C(=O)N(C)[C@@H](Cc2ccccc2)C(=O)NCC23CC(C2)(C3)C(=O)O[C@@H](Cc2ccccc2)C(=O)N1C` [compound 271, cyclo(FLac-NMeA-PyrimAla-cPrA-Phe2F-AbuF2-NMeF-amBCP)] (cyclo([Ala(cPr)][Phe(2-F)][Abu(4,4-F2)][NMeF][X1][PhLac][NMeA][Ala(pyrimidin-5-yl)])), 36600 nM.
The result for `CCCC[C@@H]1NC(=O)[C@H](Cc2cncnc2)NC(=O)[C@H](C)N(C)C(=O)[C@H](Cc2ccccc2)OC(=O)C23CC(CNC(=O)[C@H](Cc4ccccc4)N(C)C(=O)[C@H](CCCC)NC(=O)[C@H](Cc4ccccc4F)NC1=O)(C2)C3` [compound 230, cyclo(FLac-NMeA-PyrimAla-Nle-Phe2F-Nle-NMeF-amBCP)] (cyclo([NMeA][Ala(pyrimidin-5-yl)][Nle][Phe(2-F)][Nle][NMeF][X1][PhLac])) reads 590 nM; that for `CC(C)CC[C@@H]1NC(=O)[C@H](Cc2ccccc2F)NC(=O)[C@H](CC2CC2)NC(=O)[C@H](Cc2cncnc2)NC(=O)[C@H](C)N(C)C(=O)[C@H](Cc2ccccc2)OC(=O)C23CC(CNC(=O)[C@H](Cc4cccnc4F)N(C)C1=O)(C2)C3` [compound 336, cyclo(FLac-NMeA-PyrimAla-cPrA-Phe2F-hL-NMe3Pal2F-amBCP)] (cyclo([Ala(cPr)][Phe(2-F)][hLeu][X39][X1][PhLac][NMeA][Ala(pyrimidin-5-yl)])), 1390 nM.
With `CCCCC[C@@H]1NC(=O)[C@H](Cc2ccc(OC)cc2)NC(=O)[C@H](CC2CCC2)NC(=O)[C@H](Cc2cccnc2)NC(=O)[C@H](CCCNC(=N)N)NC(=O)[C@H](Cc2ccccc2)NC(=O)CSC[C@@](C)(C(N)=O)NC(=O)[C@H](Cc2ccc(C)nc2)N(C)C1=O` [compound 377, cyclo(F-R-3Pal-cBuA-TyrOMe-Ahp-NMe3Pal4Me-aMeCl-ClAc)] ({CH2CO}-FR[3Pal][Cba]Y(Me)[Ahp(2)][NMe3Pal(6-Me)][αMeC]-NH2; thioether N-8) the figure was greater than 50800 nM; with `CCCC[C@@H]1NC(=O)[C@H](Cc2cccnc2)NC(=O)[C@H](C)N(C)C(=O)[C@H](Cc2ccccc2)NC(=O)CSC[C@@](C)(C(N)=O)NC(=O)[C@H](Cc2ccccc2)N(C)C(=O)[C@H](CCCC)NC(=O)[C@H](Cc2ccccc2F)NC1=O` [compound 159, cyclo(F-NMeA-3Pal-Nle-Phe2F-Nle-NMeF-aMeCl-ClAc)] ({CH2CO}-F[NMeA][3Pal][Nle][Phe(2-F)][Nle][NMeF][αMeC]-NH2; thioether N-8), 21000 nM; with `C#CC[C@@H]1NC(=O)[C@H](CC2CC2)NC(=O)[C@H](Cc2cncnc2)NC(=O)[C@H](C)N(C)C(=O)[C@H](Cc2ccccc2)OC(=O)C23CC(CNC(=O)[C@H](Cc4ccccc4)N(C)C(=O)[C@H](CCC(C)C)NC1=O)(C2)C3` [compound 286, cyclo(FLac-NMeA-PyrimAla-cPrA-Pra-hL-NMeF-amBCP)] (cyclo([Ala(cPr)][Pra][hLeu][NMeF][X1][PhLac][NMeA][Ala(pyrimidin-5-yl)])), 30300 nM.
The compound `CCCCC[C@@H]1NC(=O)[C@H](Cc2ccc(OC)cc2)NC(=O)[C@H](CC2CCC2)NC(=O)[C@H](Cc2ccc(OCCN3CCCC3)cc2)NC(=O)[C@H](CCCNC(=N)N)NC(=O)[C@H](Cc2ccccc2)NC(=O)CSC[C@@](C)(C(N)=O)NC(=O)[C@H](Cc2ccccc2)N(C)C1=O` [compound 383, cyclo(F-R-TyrOEtPyr-cBuA-TyrOMe-Ahp-NMeF-aMeCl-ClAc)] ({CH2CO}-FRY(Ethyl(2-pyrrolidin-1-yl))[Cba]Y(Me)[Ahp(2)][NMeF][αMeC]-NH2; thioether N-8) gave an EC50 greater than 50800 nM.
The result for `CCCC[C@@H]1NC(=O)[C@H](Cc2cccnc2)NC(=O)[C@H](C)N(C)C(=O)[C@H](Cc2ccccc2)OC(=O)CSC[C@@](C)(C(N)=O)NC(=O)[C@H](Cc2cccnc2)N(C)C(=O)[C@H](CCCC)NC(=O)[C@H](Cc2ccccc2F)NC1=O` [compound 398, cyclo(FLac-NMeA-3Pal-Nlc-Phe2F-Nle-NMe3Pal-aMeCl-ClAc)] ({CH2CO}-[PhLac][NMeA][3Pal][Nle][Phe(2-F)][Nle][NMe3Pal][αMeC]-NH2; thioether N-8) reads 40700 nM.
With `CCCC[C@@H]1NC(=O)[C@H](CCCOC)NC(=O)[C@H](CC2CCC2)NC(=O)[C@H](Cc2cccnc2)NC(=O)[C@H](CCCNC(=N)N)NC(=O)[C@H](Cc2ccccc2)NC(=O)CSC[C@@](C)(C(N)=O)NC(=O)[C@H](Cc2ccccc2)N(C)C1=O` [compound 55, cyclo(F-R-3Pal-cBuA-NvaOMe-Nle-NMeF-aMeCl-ClAc)] ({CH2CO}-FR[3Pal][Cba][X41][Nle][NMeF][αMeC]-NH2; thioether N-8) the figure was greater than 50800 nM; with `CCCC[C@@H]1NC(=O)[C@H](Cc2cncnc2)NC(=O)[C@H](C)N(C)C(=O)[C@H](Cc2ccccc2)OC(=O)C23CC(CNC(=O)[C@H](Cc4ccc(F)cc4)N(C)C(=O)[C@H](CCCC)NC(=O)[C@H](Cc4ccccc4F)NC1=O)(C2)C3` [compound 173, cyclo(FLac-NMeA-PyrimAla-Nle-Phe2F-Nle-NMePhe4F-amBCP)] (cyclo([NMeA][Ala(pyrimidin-5-yl)][Nle][Phe(2-F)][Nle][NMePhe(4-F)][X1][PhLac])), 994 nM; with `CCCC[C@@H]1NC(=O)[C@H](Cc2cccnc2)NC(=O)[C@H](CO)N(C)C(=O)[C@H](Cc2ccccc2)OC(=O)C23CC(CNC(=O)[C@H](Cc4cccnc4)N(C)C(=O)[C@H](CCCC)NC(=O)[C@H](Cc4ccccc4F)NC1=O)(C2)C3` [compound 118, cyclo(FLac-NMeS-3Pal-Nle-Phe2F-Nle-NMe3Pal-amBCP)] (cyclo([3Pal][Nle][Phe(2-F)][Nle][NMe3Pal][X1][PhLac][NMeS])), greater than 50800 nM.
For `CCCC[C@@H]1NC(=O)[C@H](Cc2cncnc2)NC(=O)[C@H](C)N(C)C(=O)[C@H](Cc2ccccc2)OC(=O)C23CC(CNC(=O)[C@H](Cc4cccc(C)c4)N(C)C(=O)[C@H](CCCC)NC(=O)[C@H](Cc4ccccc4F)NC1=O)(C2)C3` [compound 172, cyclo(FLac-NMeA-PyrimAla-Nle-Phe2F-Nle-NMePhe3Me-amBCP)] (cyclo([NMeA][Ala(pyrimidin-5-yl)][Nle][Phe(2-F)][Nle][NMePhe(3-Me)][X1][PhLac])), a half-maximal response (EC50) required 256 nM.
The result for `CCCCC[C@@H]1NC(=O)[C@H](Cc2ccc(OC)cc2)NC(=O)[C@H](CC2CCC2)NC(=O)[C@H](Cc2cccnc2)NC(=O)[C@H](CCCNC)N(C)C(=O)[C@H](Cc2ccccc2)NC(=O)CSC[C@@](C)(C(N)=O)NC(=O)[C@H](Cc2ccc(C)nc2)N(C)C1=O` [compound 393, cyclo(F-NMeOrnMe-3Pal-cBuA-TyrOMe-Ahp-NMe3Pal4Me-aMeCl-ClAc)] ({CH2CO}-F[NMeOrn(Me)][3Pal][Cba]Y(Me)[Ahp(2)][NMe3Pal(6-Me)][αMeC]-NH2; thioether N-8) reads greater than 50800 nM; that for `Cc1cccc(C[C@H]2C(=O)NCC34CC(C3)(C4)C(=O)O[C@@H](Cc3ccccc3)C(=O)N(C)[C@@H](C)C(=O)N[C@@H](Cc3cncnc3)C(=O)N[C@@H](CC3CC3)C(=O)N[C@@H](Cc3ccccc3F)C(=O)N[C@@H](CCC(C)(F)F)C(=O)N2C)c1` [compound 275, cyclo(FLac-NMeA-PyrimAla-cPrA-Phe2F-Nle3F2-NMePhe3Me-amBCP)] (cyclo([Ala(cPr)][Phe(2-F)][Nle(5,5-F2)][NMePhe(3-Me)][X1][PhLac][NMeA][Ala(pyrimidin-5-yl)])), 924 nM.
The result for `CON=C1C[C@@H](Cc2ccccc2)C(=O)N(C)[C@@H](C)C(=O)N[C@@H](Cc2cncnc2)C(=O)N[C@@H](CC2CC2)C(=O)N[C@@H](Cc2ccccc2F)C(=O)N[C@@H](CCC(C)(F)F)C(=O)N(C)[C@@H](Cc2ccccc2)C(=O)NCC23CC1(C2)C3` (single isomer, unassigned) [compound 178, cyclo(CPhe-NMeA-PyrimAla-cPrA-Phe2F-Nle3F2-NMeF-MeOximamBCP)] reads 128 nM; that for `CCCC[C@@H]1NC(=O)[C@H](Cc2ccccc2F)NC(=O)[C@H](CCCCF)NC(=O)[C@H](Cc2cncnc2)NC(=O)[C@H](C)N(C)C(=O)[C@H](Cc2ccccc2)OC(=O)C23CC(CNC(=O)[C@H](Cc4ccccc4)N(C)C1=O)(C2)C3` [compound 130, cyclo(FLac-NMeA-PyrimAla-NleF-Phe2F-Nle-NMeF-amBCP)] (cyclo([NMeA][Ala(pyrimidin-5-yl)][X17][Phe(2-F)][Nle][NMeF][X1][PhLac])), 2030 nM.
